Results published in BigSolDB 2.1.

CC(=O)Nc1ccc([N+](=O)[O-])cc1
solubility (mole fraction)
Conditions | 278.15 K | 283.15 K | 288.15 K | 293.15 K | 298.15 K | 303.15 K | 308.15 K | 313.15 K | 318.15 K | 323.15 K
in 1,4-dioxane | – | – | 0.00627 | 0.00697 | 0.00787 | 0.00907 | 0.0107 | 0.0127 | 0.0151 | 0.0182
in DMF | 0.102 | 0.107 | 0.112 | 0.118 | 0.126 | 0.135 | 0.145 | 0.156 | 0.171 | 0.187
in NMP | 0.0745 | 0.0841 | 0.0984 | 0.111 | 0.126 | 0.144 | 0.163 | 0.184 | 0.21 | 0.244
in acetonitrile | 0.00235 | 0.00271 | 0.00325 | 0.00386 | 0.00456 | 0.00545 | 0.0065 | 0.00778 | 0.00923 | 0.011
in cyclohexane | – | 1.94e-06 | 2.71e-06 | 3.77e-06 | 5.18e-06 | 6.81e-06 | 8.98e-06 | 1.16e-05 | 1.49e-05 | 1.91e-05
in ethanol | 0.00182 | 0.00222 | 0.00265 | 0.00318 | 0.00377 | 0.00458 | 0.00542 | 0.00641 | 0.00772 | 0.00921
in ethyl acetate | 0.00357 | 0.00414 | 0.00481 | 0.00562 | 0.00682 | 0.00824 | 0.00993 | 0.0118 | 0.0144 | 0.0171
in ethylene glycol | 0.000807 | 0.000953 | 0.00114 | 0.00141 | 0.00171 | 0.00208 | 0.00246 | 0.00301 | 0.00367 | 0.00451
in isobutanol | 0.00132 | 0.00158 | 0.00193 | 0.00233 | 0.00284 | 0.00335 | 0.00405 | 0.00488 | 0.00602 | 0.00728
in isopropanol | 0.00166 | 0.00201 | 0.00241 | 0.00292 | 0.00348 | 0.00436 | 0.00515 | 0.0062 | 0.00736 | 0.00868
in methanol | 0.00147 | 0.00182 | 0.00215 | 0.00261 | 0.00312 | 0.00366 | 0.00441 | 0.00543 | 0.0065 | 0.00772
in n-butanol | 0.00225 | 0.0026 | 0.00308 | 0.0036 | 0.0043 | 0.00512 | 0.0062 | 0.0074 | 0.00894 | 0.0106
in n-heptanol | 0.00264 | 0.00303 | 0.00354 | 0.00417 | 0.00508 | 0.00621 | 0.00742 | 0.00911 | 0.0108 | 0.013
in n-propanol | 0.0021 | 0.00251 | 0.00297 | 0.00352 | 0.00418 | 0.00496 | 0.00595 | 0.00714 | 0.00856 | 0.0101
in water | 6.37e-06 | 7.72e-06 | 1.04e-05 | 1.34e-05 | 1.68e-05 | 2.23e-05 | 2.89e-05 | 3.67e-05 | 4.69e-05 | 6.01e-05
